For 23 compounds, EC50 results are on record in patent US20250312352A1, “GLP-1R MODULATING COMPOUNDS” (Gilead Sciences, Inc., priority 2021, published 2025).

T1 sequence (P43220 24-463): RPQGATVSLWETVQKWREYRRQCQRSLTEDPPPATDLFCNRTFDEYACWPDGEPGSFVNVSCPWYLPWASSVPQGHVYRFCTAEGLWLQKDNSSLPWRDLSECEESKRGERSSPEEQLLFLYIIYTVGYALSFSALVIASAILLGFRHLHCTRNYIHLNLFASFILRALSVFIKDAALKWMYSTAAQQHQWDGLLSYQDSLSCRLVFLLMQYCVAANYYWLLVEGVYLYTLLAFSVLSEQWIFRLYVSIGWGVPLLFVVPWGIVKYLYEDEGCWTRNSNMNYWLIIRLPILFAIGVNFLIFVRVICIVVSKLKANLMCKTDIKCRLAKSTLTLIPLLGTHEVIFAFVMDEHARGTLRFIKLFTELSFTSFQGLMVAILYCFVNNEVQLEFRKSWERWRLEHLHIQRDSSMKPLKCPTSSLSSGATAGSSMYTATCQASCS

This experiment concerns the target T1, GLP-1R (Homo sapiens, UniProt P43220).
T1 construct: host or cells: CHO cells
Nature of the experiment: GLP-1R activation cAMP assay (Assay 1 or Assay 2). Particulars: cAMP increase in CHO cells stably expressing GLP-1R; compounds run on one of the two cAMP assays. The class given is cell-based. Put shortly: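 CHO cells stably expressing human GLP-1R were incubated 1 h in HBSS/20 mM HEPES/0.1% BSA, then exposed to 10-point agonist dilutions for 30 min at 37 °C. cAMP increase was measured with an HTRF Gs dynamic kit; EC50 from sigmoidal fit of response versus log concentration.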
As a reminder, the EC50 is the midpoint of the concentration-response curve. Take `Cn1cc(NC(=O)c2cc(Cl)c(COc3cccc(-c4cc(F)c(Cc5nc6ccc(C(=O)O)cc6n5C[C@@H]5CCO5)cc4F)n3)cn2)cn1` [Example 194, (S)-2-(4-(6-((4-chloro-6-((1-methyl-1H-pyrazol-4-yl)carbamoyl)pyridin-3-yl)methoxy)pyridin-2-yl)-2,5-difluorobenzyl)-1-(oxetan-2-ylmethyl)-1H-benzo[d]imidazole-6-carboxylic acid]: it took 0.17 nM to reach a half-maximal effect (EC50).

As to `CCc1nnc(COc2cccc(-c3cc(F)c(Cc4nc5ccc(C(=O)O)cc5n4C[C@@H]4CCO4)cc3F)n2)s1` [Example 299, (S)-2-(4-(6-((5-ethyl-1,3,4-thiadiazol-2-yl)methoxy)pyridin-2-yl)-2,5-difluorobenzyl)-1-(oxetan-2-ylmethyl)-1H-benzo[d]imidazole-6-carboxylic acid], the EC50 worked out at 2.63 nM.

`Cn1nncc1C#Cc1ccc(COc2cccc(-c3cc(F)c(Cc4nc5ccc(C(=O)O)cc5n4C[C@@H]4CCO4)cc3F)n2)c(F)n1` [Example 278, (S)-2-(2,5-difluoro-4-(6-((2-fluoro-6-((1-methyl-1H-1,2,3-triazol-5-yl)ethynyl)pyridin-3-yl)methoxy)pyridin-2-yl)benzyl)-1-(oxetan-2-ylmethyl)-1H-benzo[d]imidazole-6-carboxylic acid] yielded an EC50 of 0.617 nM.

In turn, `O=C(O)c1ccc2nc(Cc3cc(F)c(-c4cccc(OCc5ccc(C#Cc6nccs6)cc5F)n4)cc3F)n(C[C@@H]3CCO3)c2c1` [Example 141, (S)-2-(2,5-difluoro-4-(6-((2-fluoro-4-(thiazol-2-ylethynyl)benzyl)oxy)pyridin-2-yl)benzyl)-1-(oxetan-2-ylmethyl)-1H-benzo[d]imidazole-6-carboxylic acid] gave an EC50 of 0.33 nM.

In turn, `O=C(O)c1ccc2nc(Cc3cc(F)c(-c4cccc(OCc5cnc(Br)s5)n4)cc3F)n(C[C@@H]3CCO3)c2c1` [Example 21, (S)-2-(4-(6-((2-bromothiazol-5-yl)methoxy)pyridin-2-yl)-2,5-difluorobenzyl)-1-(oxetan-2-ylmethyl)-1H-benzo[d]imidazole-6-carboxylic acid] registered an EC50 of 0.41 nM.

Compound `Cc1cc(Cc2nc3c(F)cc(C(=O)O)cc3n2C[C@@H]2CCO2)c(F)cc1-c1cccc(OCc2cnc(-c3cnn(C4CC4)c3)cc2Cl)n1` [Example 163, (S)-2-(4-(6-((4-chloro-6-(1-cyclopropyl-1H-pyrazol-4-yl)pyridin-3-yl)methoxy)pyridin-2-yl)-2-fluoro-5-methylbenzyl)-4-fluoro-1-(oxetan-2-ylmethyl)-1H-benzo[d]imidazole-6-carboxylic acid] registered an EC50 of 0.7 nM.

Regarding `CNC(=O)c1cc(Cl)c(COc2cccc(-c3cc(F)c(Cc4nc5c(F)cc(C(=O)O)cc5n4C[C@@H]4CCO4)cc3F)n2)cn1` [Example 198, (S)-2-(4-(6-((4-chloro-6-(methylcarbamoyl)pyridin-3-yl)methoxy)pyridin-2-yl)-2,5-difluorobenzyl)-4-fluoro-1-(oxetan-2-ylmethyl)-1H-benzo[d]imidazole-6-carboxylic acid], the EC50 was 0.04 nM.

The compound `CC1(C)COC[C@H]1n1c(Cc2cc(F)c(-c3cccc(OCc4ncc(C(F)(F)F)s4)n3)cc2F)nc2ccc(C(=O)O)cc21` [Example 414, (S)-2-(2,5-difluoro-4-(6-((5-(trifluoromethyl)thiazol-2-yl)methoxy)pyridin-2-yl)benzyl)-1-(4,4-dimethyltetrahydrofuran-3-yl)-1H-benzo[d]imidazole-6-carboxylic acid] gave an EC50 of 0.318 nM.

In turn, `CNC(=O)c1cc(Cl)c(COc2cccc(-c3ccc(Cc4nc5ccc(C(=O)O)cc5n4[C@@H]4COCC4(C)C)c(F)c3)n2)cn1` [Example 399, (S)-2-(4-(6-((4-chloro-6-(methylcarbamoyl)pyridin-3-yl)methoxy)pyridin-2-yl)-2-fluorobenzyl)-1-(4,4-dimethyltetrahydrofuran-3-yl)-1H-benzo[d]imidazole-6-carboxylic acid] came in with an EC50 of 0.01 nM.

For the compound `COc1ncc(C#Cc2cnc(COc3cccc(-c4cc(F)c(Cc5nc6ccc(C(=O)O)cc6n5C[C@@H]5CCO5)cc4F)n3)c(F)c2)s1` [Example 294, (S)-2-(2,5-difluoro-4-(6-((3-fluoro-5-((2-methoxythiazol-5-yl)ethynyl)pyridin-2-yl)methoxy)pyridin-2-yl)benzyl)-1-(oxetan-2-ylmethyl)-1H-benzo[d]imidazole-6-carboxylic acid], the EC50 amounted to 0.182 nM.

For the compound `O=C(O)c1ccc2nc(Cc3cc(F)c(-c4cccc(OCc5nccs5)n4)cc3F)n(C[C@@H]3CCO3)c2c1` [Example 11, (S)-2-(2,5-difluoro-4-(6-(thiazol-2-ylmethoxy)pyridin-2-yl)benzyl)-1-(oxetan-2-ylmethyl)-1H-benzo[d]imidazole-6-carboxylic acid], the midpoint of the response, the EC50, lay at 0.6 nM.

In the case of `O=C(O)c1ccc2nc(Cc3cc(F)c(-c4cccc(OCc5ccn(C6COC6)n5)n4)cc3F)n(C[C@@H]3CCO3)c2c1` [Example 10, (S)-2-(2,5-difluoro-4-(6-((1-(oxetan-3-yl)-1H-pyrazol-3-yl)methoxy)pyridin-2-yl)benzyl)-1-(oxetan-2-ylmethyl)-1H-benzo[d]imidazole-6-carboxylic acid], the response was half-maximal at 7.55 nM (EC50).

Take `CC1(C)COC[C@H]1n1c(Cc2cc(F)c(-c3ccc(F)c(OCc4ncc(Cl)s4)n3)cc2F)nc2ccc(C(=O)O)cc21` [Example 255, (S)-2-(4-(6-((5-chlorothiazol-2-yl)methoxy)-5-fluoropyridin-2-yl)-2,5-difluorobenzyl)-1-(4,4-dimethyltetrahydrofuran-3-yl)-1H-benzo[d]imidazole-6-carboxylic acid]: the EC50 is 0.366 nM.

With `O=C(O)c1ccc2nc(Cc3cc(F)c(-c4cccc(OCc5ncc(Br)s5)n4)cc3F)n(C[C@@H]3CCO3)c2c1` [Example 22, (S)-2-(4-(6-((5-bromothiazol-2-yl)methoxy)pyridin-2-yl)-2,5-difluorobenzyl)-1-(oxetan-2-ylmethyl)-1H-benzo[d]imidazole-6-carboxylic acid], it took 0.17 nM to reach a half-maximal effect (EC50).

`Cc1nc(COc2cccc(-c3cc(F)c(Cc4nc5ccc(C(=O)O)cc5n4C[C@H]4CCO4)cc3F)n2)sc1-c1cnn(C)c1` [Example 104, (R)-2-(2,5-difluoro-4-(6-((4-methyl-5-(1-methyl-1H-pyrazol-4-yl)thiazol-2-yl)methoxy)pyridin-2-yl)benzyl)-1-(oxetan-2-ylmethyl)-1H-benzo[d]imidazole-6-carboxylic acid] returned an EC50 of 0.07 nM.

With `N#Cc1cnc(COc2cccc(-c3cc(F)c(Cc4nc5ccc(C(=O)O)cc5n4C[C@@H]4CCO4)cc3F)n2)s1` [Example 2, (S)-2-(4-(6-((5-cyanothiazol-2-yl)methoxy)pyridin-2-yl)-2,5-difluorobenzyl)-1-(oxetan-2-ylmethyl)-1H-benzo[d]imidazole-6-carboxylic acid], the response was half-maximal at 0.11 nM (EC50).

In turn, `CCOc1nnc(COc2nc(-c3cc(F)c(Cc4nc5ccc(C(=O)O)cc5n4[C@@H]4COCC4(C)C)cc3F)ccc2F)s1` [Example 424, (S)-1-(4,4-dimethyltetrahydrofuran-3-yl)-2-(4-(6-((5-ethoxy-1,3,4-thiadiazol-2-yl)methoxy)-5-fluoropyridin-2-yl)-2,5-difluorobenzyl)-1H-benzo[d]imidazole-6-carboxylic acid] registered an EC50 of 0.027 nM.

With `COc1cc(C(=O)NC2(C#N)CC2)ncc1COc1cccc(-c2cc(F)c(Cc3nc4c(F)cc(C(=O)O)cc4n3C[C@@H]3CCO3)cc2F)n1` [Example 42, (S)-2-(4-(6-((6-((1-cyanocyclopropyl)carbamoyl)-4-methoxypyridin-3-yl)methoxy)pyridin-2-yl)-2,5-difluorobenzyl)-4-fluoro-1-(oxetan-2-ylmethyl)-1H-benzo[d]imidazole-6-carboxylic acid], the EC50 is 0.07 nM.

`N#CCNC(=O)c1ccc(COc2cccc(-c3cc(F)c(Cc4nc5ccc(C(=O)O)cc5n4C[C@@H]4CCO4)cc3F)n2)cn1` [Example 175, (S)-2-(4-(6-((6-((cyanomethyl)carbamoyl)pyridin-3-yl)methoxy)pyridin-2-yl)-2,5-difluorobenzyl)-1-(oxetan-2-ylmethyl)-1H-benzo[d]imidazole-6-carboxylic acid] had an EC50 of 0.11 nM.

In turn, `CNC(=O)c1cc(Cl)c(COc2cccc(-c3cc(F)c(Cc4nc5c(F)cc(C(=O)O)cc5n4CC4(CF)CC4)c(F)c3F)n2)cn1` [Example 398, 2-(4-(6-((4-chloro-6-(methylcarbamoyl)pyridin-3-yl)methoxy)pyridin-2-yl)-2,3,6-trifluorobenzyl)-4-fluoro-1-((1-(fluoromethyl)cyclopropyl)methyl)-1H-benzo[d]imidazole-6-carboxylic acid] displayed an EC50 of 0.017 nM.

`NC(=O)c1cnc(COc2cccc(-c3cc(F)c(Cc4nc5ccc(C(=O)O)cc5n4C[C@@H]4CCO4)cc3F)n2)s1` [Example 3, (S)-2-(4-(6-((5-carbamoylthiazol-2-yl)methoxy)pyridin-2-yl)-2,5-difluorobenzyl)-1-(oxetan-2-ylmethyl)-1H-benzo[d]imidazole-6-carboxylic acid] gave an EC50 of 3.15 nM.

In turn, `CC1(C)COC[C@H]1n1c(Cc2cc(F)c(-c3cccc(OCc4nnc(C5CC5)s4)n3)cc2F)nc2ccc(C(=O)O)cc21` [Example 431, (S)-2-(4-(6-((5-cyclopropyl-1,3,4-thiadiazol-2-yl)methoxy)pyridin-2-yl)-2,5-difluorobenzyl)-1-(4,4-dimethyltetrahydrofuran-3-yl)-1H-benzo[d]imidazole-6-carboxylic acid] displayed an EC50 of 0.195 nM.

The compound `CNC(=O)c1cc(Cl)c(COc2cccc(-c3cc(F)c(Cc4nc5c(F)cc(C(=O)O)cc5n4CC4(CF)CC4)cc3F)n2)cn1` [Example 417, 2-(4-(6-((4-chloro-6-(methylcarbamoyl)pyridin-3-yl)methoxy)pyridin-2-yl)-2,5-difluorobenzyl)-4-fluoro-1-((1-(fluoromethyl)cyclopropyl)methyl)-1H-benzo[d]imidazole-6-carboxylic acid] yielded an EC50 of 0.26 nM.
